Tests used:
[1] = Stability in mouse liver S9 fractions; format: in vitro ADME
[2] = tested on: B16F10 tumors; assay: B16F10 syngeneic tumor model with anti-PD1; format: in vivo
Method: (§1) Figure 4 LD4172 synergizes with Anti-PD1 to inhibit tumor growth. A, Plasma concentrations of LD4172 in C57BL/6J mice administered 1 mg/kg intravenously (i.v.) or 10 mg/kg intraperitoneally (i.p.) (n=4). B, Representative immunoblots of RIPK1 in different tissues of C57BL/6J mice treated with LD4172 (n=3–4). C, Densitometric analysis of RIPK1 protein levels in different tissues (n=3 or 4). D, Representative immunoblots of RIPK1 levels of B16F10 cells transduced with gRNA specific for RIPK1 or non-targetable control (sgNC). E, B16F10-RIPK1-KO tumors sensitized to anti-PD1 treatment: 3×10^5 B16F10 cells transduced with gRNA specific for RIPK1 or non-targetable control (sgNC) were inoculated into C57BL/6J mice. After seven days, mice with measurable tumors (~100 mm3) were randomly treated with or without anti-PD1 in vivo (100 μg per dose, i.p., every three days, n=8). F, Tumor growth curve of mice with B16F10 tumors treated with LD4172 and/or anti-PD1 (n=8). C57B6/J mice were subcutaneously inoculated with 3×10^5 B16F10 tumor cells. After seven days (tumor size ~ 100 mm3), mice were treated every three days with anti- PD1 (100 μg per dose, i.p.), daily with LD4172 (20 mg/kg, i.p.), a combination of LD4172 and anti-PD1 (same dose as their individual doses), or their corresponding vehicle control. G, Kaplan-Meier survival curve for all experimental groups. H, Final tumor weight (g) from F after 22d of treatment (n=8). I, Representative images of B16F10 tumors collected at the end of treatment. J, Mouse body weight (n=8). K, Tumor growth curve of mice with B16F10 tumors treated with T2I and/or anti-PD1 (n=8). The experimental conditions and treatment regimens were the same as F except using the RIPK1 kinase inhibitor T2I (20 mg/kg, i.p.) to replace LD4172. Representative data from at least three independent experiments are shown. Data are expressed as the mean ± SEM. * p<0.05; ** p<0.01; *** p<0.001, **** p<0.0001, respectively. ns, indicates no statistical significance.
To establish a syngeneic mouse model, 3× 10^5 B16F10 cells resuspended in PBS were mixed 1:1 by volume with Matrigel (354262, Corning) and subcutaneously injected into the right flank of seven-week-old wild-type female C57BL/6J mice on day 0. Treatments were started on day 7 when the tumor volume reached approximately 100 mm^3. Antibodies were administered in 100μL volumes and injected intraperitoneally every three days for the following: anti-PD1 (100 μg, BE0146, BioXcell) and anti-CD8 (500 μg, BE0004, BioXcell). The RIPK1 degrader LD4172 and RIPK1 kinase inhibitor T2I were delivered in 200 μL of vehicle solution (30% PEG400, 5% Tween-80, 5% DMSO) once daily (20 mg/kg, i.p. injection). […] Tumors were measured every three days beginning on day 7 after the challenge until death. […]

[3] = Plasma protein binding; format: in vitro ADME; conditions: read-out: bound to plasma proteins (converted)
[4] = biological target: T1, RIPK1 (Mus musculus, UniProt Q60855); assay: In vivo pharmacodynamics: RIPK1 levels in tissues; design: observed a 60% reduction in RIPK1 levels in tumors; from tissue; host or cells: tumors, spleen, lymph nodes, PBMCs, lungs, bone marrow of C57BL/6J mice; species or system C57BL/6J mice
T1 sequence (Q60855 1-656): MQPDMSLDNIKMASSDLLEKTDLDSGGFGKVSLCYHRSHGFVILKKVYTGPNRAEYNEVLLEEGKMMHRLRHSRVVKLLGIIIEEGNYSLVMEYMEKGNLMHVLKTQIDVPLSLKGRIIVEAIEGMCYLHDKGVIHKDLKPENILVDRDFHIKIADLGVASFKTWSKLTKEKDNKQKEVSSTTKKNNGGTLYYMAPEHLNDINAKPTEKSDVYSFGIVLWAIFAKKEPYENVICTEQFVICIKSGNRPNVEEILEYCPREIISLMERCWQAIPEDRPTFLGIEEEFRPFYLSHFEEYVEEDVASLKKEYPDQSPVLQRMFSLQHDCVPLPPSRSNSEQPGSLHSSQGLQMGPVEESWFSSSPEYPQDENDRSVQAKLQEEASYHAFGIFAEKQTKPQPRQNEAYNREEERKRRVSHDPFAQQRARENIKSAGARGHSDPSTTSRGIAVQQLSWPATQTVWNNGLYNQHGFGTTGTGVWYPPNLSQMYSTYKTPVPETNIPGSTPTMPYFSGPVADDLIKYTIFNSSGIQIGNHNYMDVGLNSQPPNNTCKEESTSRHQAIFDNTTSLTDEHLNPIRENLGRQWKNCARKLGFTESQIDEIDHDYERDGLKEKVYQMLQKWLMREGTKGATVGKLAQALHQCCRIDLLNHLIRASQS
Method: as §1
To investigate the pharmacodynamics of LD4172 in vivo, we administered LD4172 via the i.p. route and observed a 60% reduction in RIPK1 levels in tumors (20 mg/kg, b.i.d., i.p.) (Fig. 4B–C).

Cc1ncsc1-c1ccc([C@H](C)NC(=O)[C@@H]2C[C@@H](O)CN2C(=O)[C@@H](NC(=O)CCCCCCCCCCC(=O)NCCCn2cc(-c3ccc4c(c3)CCN4C(=O)Cc3cccc(OC(F)(F)F)c3)c3c(N)ncnc32)C(C)(C)C)cc1 [LD4172]
half-life [1]: 9.7 min
intrinsic clearance (CLint) [1]: 71.6 μL·min^− 1·mg^− 1 protein
tumor response in combination with anti-PD1 ([2]; B16F10 tumors, 20 mg/kg i.p. daily plus anti-PD1 100 μg i.p. every three days): sensitized B16F10 tumors to anti-PD1 therapy
tumor progression, single agent ([2]; B16F10 tumors, LD4172 20 mg/kg i.p. daily, anti-PD1 100 μg i.p. every three days): tumor progression similar to that of the untreated mice
mouse body weight ([2]; long-term administration): no impact on mouse body weight
fraction unbound [3]: 0.014
reduction in RIPK1 levels in tumors ([4]; 20 mg/kg, b.i.d., i.p.): 60%
RIPK1 degradation in lymph nodes, PBMCs, lungs, and bone marrow ([4]; i.p.): no significant RIPK1 degradation
RIPK1 degradation in the spleen ([4]; i.p.): less than 50%
RIPK1 degradation in tumors, intratumoral administration ([4]; intratumoral vs i.p.): improved RIPK1 degradation in the tumors

Source: PMC11042424, “Development of a First-in-Class RIPK1 Degrader to Enhance Antitumor Immunity” (Research Square, 2024)
